Values of other authors as cited in patent US20190357582A1, “Methods For Inducing Adipocyte Browning, Improving Metabolic Flexibility, And Reducing Detrimental White Adipose Tissue Deposition And Dysfunction” (MEAD JOHNSON NUTRITION COMPANY, priority 2017, published 2019).

Tested on: UCP1
Conditions: positive control for browning

SMILES: COc1ccc2c(c1)[nH]c1c(C)nccc12 [Harmine]
- browning activity: browning activity
